Measured values: ChEMBL document CHEMBL5634204, “Goondansamycins A-H: Benzenoid Ansamycins from an Australian Volcanic Crater Soil-Derived Actinomadura sp. S4S-00069B08” (J Nat Prod, 2024)
pIC50: −log10 of the molar value.

Columns and labels:
Escherichia coli = test: Antibacterial activity against Escherichia coli ATCC 11775 assessed as inhibition of bacterial growth incubated for 24 hrs by spectrophotometry; type: functional, organism-based; settings: ATCC 11775, 24 h
SW-620 = test: Cytotoxicity against human SW620 cells assessed as inhibition of cell growth incubated for 48 hrs by MTT assay; type: functional, cell-based; settings: SW-620, 48 h
Staphylococcus aureus = test: Antibacterial activity against Staphylococcus aureus ATCC 25923 assessed as inhibition of bacterial growth incubated for 24 hrs by spectrophotometry; type: functional, organism-based; settings: ATCC 25923, 24 h
Candida albicans = test: Antifungal activity against Candida albicans ATCC 10231 assessed as inhibition of fungal growth incubated for 48 hrs by spectrophotometry; type: functional, organism-based; settings: ATCC 10231, 48 h
NCI-H460 = test: Cytotoxicity against human NCI-H460 cells assessed as inhibition of cell growth incubated for 48 hrs by MTT assay; type: functional, cell-based; settings: NCI-H460, 48 h

Measured: pIC50

CCC(=O)[C@@H](C)C/C(C)=C/[C@@H](C)[C@H](O[C@@H]1CC[C@@H](O)[C@@H](C)O1)C1=CC(=O)C=C(N)C1=O
< 4.52: Escherichia coli | SW-620 | Staphylococcus aureus | Candida albicans | NCI-H460

C/C1=C\[C@@H](C)[C@H](O[C@@H]2CC[C@@H](O)[C@@H](C)O2)c2cc(O)cc3c2O[C@](C)(C(=O)N3)C(=O)[C@@H](C)C1
< 4.52: Escherichia coli | SW-620 | Staphylococcus aureus | Candida albicans | NCI-H460

C/C1=C\[C@@H](C)[C@H](O)c2cc(O)cc3c2O[C@](C)(C(=O)N3)C(=O)[C@H](C)C1
< 4.52: Escherichia coli | SW-620 | Staphylococcus aureus | Candida albicans | NCI-H460

C/C1=C\[C@@H](C)[C@H](O[C@@H]2CC[C@@H](O)[C@@H](C)O2)C2=CC(=O)C(N)=C(NC(=O)C(C)C(=O)[C@@H](C)C1)C2=O (stereo not given in full)
< 4.52: Escherichia coli | SW-620 | Staphylococcus aureus | Candida albicans | NCI-H460

C/C1=C\[C@@H](C)[C@H](O)c2cc(O)cc(c2O)NC(=O)[C@@H](C)C(=O)[C@@H](C)C1
< 4.52: Escherichia coli | SW-620 | Staphylococcus aureus | Candida albicans | NCI-H460

C/C1=C\C(C)C(O)c2cc(O)cc3c2OC(CO)(C(=O)N3)C(=O)C(C)C1 (stereo not given)
< 4.52: Escherichia coli | SW-620 | Staphylococcus aureus | Candida albicans | NCI-H460

C/C1=C\[C@@H](C)[C@H](O)C2=CC(=O)C(N)=C(NC(=O)C(C)C(=O)[C@@H](C)C1)C2=O (stereo not given in full)
< 4.52: Escherichia coli | SW-620 | Staphylococcus aureus | Candida albicans | NCI-H460

C/C1=C\[C@@H](C)[C@H](O)c2cc(O)cc3c2O[C@](C)(C(=O)N3)C(=O)[C@@H](C)C1
< 4.52: Escherichia coli | SW-620 | Staphylococcus aureus | Candida albicans | NCI-H460

C/C1=C\C(C)C(O)c2cc(O)cc3c2OC(C)(C(=O)N3)C(=O)C(C)C1 (stereo not given)
< 4.52: Escherichia coli | SW-620 | Staphylococcus aureus | Candida albicans | NCI-H460

C/C1=C\[C@@H](C)[C@H](O[C@@H]2CC[C@H](O)[C@@H](C)O2)c2cc(O)cc3c2O[C@](C)(C(=O)N3)C(=O)[C@@H](C)C1
< 4.52: Escherichia coli | SW-620 | Staphylococcus aureus | Candida albicans | NCI-H460
